Measured values published in PubChem BioAssay (NCI).
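96-well plates; 48 h exposure; 5 concentrations. Endpoints by linear interpolation between flanking doses. Not reached: highest tested concentration assigned. Abbreviation: GI50, concentration required for 50% inhibition of growth. TGI: concentration producing complete growth inhibition.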

What was measured:
Assay in all cases: NCI-60 cell line screen, 48 h
M14 melanoma = system: M14 melanoma
RPMI-8226 leukemia = system: RPMI-8226 leukemia
TK-10 renal = system: TK-10 renal
MOLT-4 leukemia = system: MOLT-4 leukemia
SNB-75 CNS = system: SNB-75 CNS
BT-549 breast = system: BT-549 breast
RXF 393 renal = system: RXF 393 renal
A549 NSCLC = system: A549 NSCLC
IGROV1 ovarian = system: IGROV1 ovarian
HT29 colon = system: HT29 colon
NCI-H522 lung = system: NCI-H522 lung
A498 renal = system: A498 renal
HOP-62 NSCLC = system: HOP-62 NSCLC
CCRF-CEM leukemia = system: CCRF-CEM leukemia
SK-MEL-28 melanoma = system: SK-MEL-28 melanoma
SF-295 CNS = system: SF-295 CNS
K-562 leukemia = system: K-562 leukemia
SK-MEL-2 melanoma = system: SK-MEL-2 melanoma
CAKI-1 renal = system: CAKI-1 renal
UACC-62 melanoma = system: UACC-62 melanoma
UACC-257 melanoma = system: UACC-257 melanoma
LOX IMVI melanoma = system: LOX IMVI melanoma
SW-620 colon = system: SW-620 colon
HS 578T breast = system: HS 578T breast
UO-31 renal = system: UO-31 renal
MCF7 breast = system: MCF7 breast
EKVX NSCLC = system: EKVX NSCLC
NCI-H226 lung = system: NCI-H226 lung
HCT-15 colon = system: HCT-15 colon
DU-145 prostate = system: DU-145 prostate
SF-268 CNS = system: SF-268 CNS
OVCAR-8 ovarian = system: OVCAR-8 ovarian
MDA-MB-231 breast = system: MDA-MB-231 breast
HCT-116 colon = system: HCT-116 colon
OVCAR-3 ovarian = system: OVCAR-3 ovarian
HOP-92 NSCLC = system: HOP-92 NSCLC
SK-MEL-5 melanoma = system: SK-MEL-5 melanoma
ACHN renal = system: ACHN renal
PC-3 prostate = system: PC-3 prostate
U251 CNS = system: U251 CNS
SR leukemia = system: SR leukemia
KM12 colon = system: KM12 colon
MDA-MB-435 = system: MDA-MB-435
SN12C renal = system: SN12C renal
NCI-H460 lung = system: NCI-H460 lung
HL-60(TB) leukemia = system: HL-60(TB) leukemia
786-0 renal = system: 786-0 renal
OVCAR-4 ovarian = system: OVCAR-4 ovarian
SF-539 CNS = system: SF-539 CNS

Compound: COc1ccc(CN2C(=O)C(Cl)=C(Nc3cccc(O)c3)C2=O)cc1
- GI50 (M14 melanoma): 5.63 µM
- TGI (M14 melanoma): 75.7 µM
- GI50 (RPMI-8226 leukemia): 0.807 µM
- TGI (RPMI-8226 leukemia): 11.7 µM
- GI50 (TK-10 renal): 3.77 µM
- TGI (TK-10 renal): 37 µM
- GI50 (MOLT-4 leukemia): 0.501 µM
- TGI (MOLT-4 leukemia): 10.5 µM
- GI50 (SNB-75 CNS): 6.73 µM
- TGI (SNB-75 CNS): > 100 µM
- GI50 (BT-549 breast): 13.7 µM
- TGI (BT-549 breast): 45.4 µM
- GI50 (RXF 393 renal): 2.16 µM
- TGI (RXF 393 renal): 11.3 µM
- GI50 (A549 NSCLC): 3.15 µM
- TGI (A549 NSCLC): 20.5 µM
- GI50 (IGROV1 ovarian): 0.591 µM
- TGI (IGROV1 ovarian): 15.2 µM
- GI50 (HT29 colon): 18 µM
- TGI (HT29 colon): > 100 µM
- GI50 (NCI-H522 lung): 2.31 µM
- TGI (NCI-H522 lung): 17.6 µM
- GI50 (A498 renal): 14.2 µM
- TGI (A498 renal): 35.7 µM
- GI50 (HOP-62 NSCLC): 8.61 µM
- TGI (HOP-62 NSCLC): > 100 µM
- GI50 (CCRF-CEM leukemia): 0.748 µM
- TGI (CCRF-CEM leukemia): 20.9 µM
- GI50 (SK-MEL-28 melanoma): 13.3 µM
- TGI (SK-MEL-28 melanoma): > 100 µM
- GI50 (SF-295 CNS): 2.75 µM
- TGI (SF-295 CNS): 31.2 µM
- GI50 (K-562 leukemia): 0.349 µM
- TGI (K-562 leukemia): 9.13 µM
- GI50 (SK-MEL-2 melanoma): 4.16 µM
- TGI (SK-MEL-2 melanoma): 24.5 µM
- GI50 (CAKI-1 renal): 1.68 µM
- TGI (CAKI-1 renal): 21.3 µM
- GI50 (UACC-62 melanoma): 2.83 µM
- TGI (UACC-62 melanoma): 21.1 µM
- GI50 (UACC-257 melanoma): 5.64 µM
- TGI (UACC-257 melanoma): 19.2 µM
- GI50 (LOX IMVI melanoma): 5.7 µM
- TGI (LOX IMVI melanoma): 23 µM
- GI50 (SW-620 colon): 4.69 µM
- TGI (SW-620 colon): > 100 µM
- GI50 (HS 578T breast): 9.62 µM
- TGI (HS 578T breast): 51.7 µM
- GI50 (UO-31 renal): 6.91 µM
- TGI (UO-31 renal): 95.1 µM
- GI50 (MCF7 breast): 3.64 µM
- TGI (MCF7 breast): 15.6 µM
- GI50 (EKVX NSCLC): 21.5 µM
- TGI (EKVX NSCLC): 56 µM
- GI50 (NCI-H226 lung): 6.44 µM
- TGI (NCI-H226 lung): 50.5 µM
- GI50 (HCT-15 colon): 2.05 µM
- TGI (HCT-15 colon): 21.4 µM
- GI50 (DU-145 prostate): 13.8 µM
- TGI (DU-145 prostate): 33 µM
- GI50 (SF-268 CNS): 17.2 µM
- TGI (SF-268 CNS): 45.8 µM
- GI50 (OVCAR-8 ovarian): 2.99 µM
- TGI (OVCAR-8 ovarian): 15 µM
- GI50 (MDA-MB-231 breast): 6.43 µM
- TGI (MDA-MB-231 breast): > 100 µM
- GI50 (HCT-116 colon): 1.14 µM
- TGI (HCT-116 colon): 19.8 µM
- GI50 (OVCAR-3 ovarian): 1.73 µM
- TGI (OVCAR-3 ovarian): 23.5 µM
- GI50 (HOP-92 NSCLC): 12.1 µM
- TGI (HOP-92 NSCLC): 59.6 µM
- GI50 (SK-MEL-5 melanoma): 3.78 µM
- TGI (SK-MEL-5 melanoma): 17.7 µM
- GI50 (ACHN renal): 10.9 µM
- TGI (ACHN renal): 57.3 µM
- GI50 (PC-3 prostate): 4.39 µM
- TGI (PC-3 prostate): 36.1 µM
- GI50 (U251 CNS): 5.05 µM
- TGI (U251 CNS): 21.1 µM
- GI50 (SR leukemia): 0.185 µM
- TGI (SR leukemia): 0.465 µM
- GI50 (KM12 colon): 0.801 µM
- TGI (KM12 colon): 21.6 µM
- GI50 (MDA-MB-435): 0.269 µM
- TGI (MDA-MB-435): 1.7 µM
- GI50 (SN12C renal): 4.03 µM
- TGI (SN12C renal): 20.1 µM
- GI50 (NCI-H460 lung): 14.6 µM
- TGI (NCI-H460 lung): 31.6 µM
- GI50 (HL-60(TB) leukemia): 1.29 µM
- TGI (HL-60(TB) leukemia): 7.49 µM
- GI50 (786-0 renal): 4.23 µM
- TGI (786-0 renal): > 100 µM
- GI50 (OVCAR-4 ovarian): 45.1 µM
- TGI (OVCAR-4 ovarian): > 100 µM
- GI50 (SF-539 CNS): 4.24 µM
- TGI (SF-539 CNS): 15.9 µM
